Data reported in ChEMBL document CHEMBL5344485, “Discovery of CRN04894: A Novel Potent Selective MC2R Antagonist” (ACS Med Chem Lett, 2024).
One block for each compound: values may come before it.

Assays:
[1] = target: Adrenocorticotropic hormone receptor (Homo sapiens, UniProt Q01718)
Description: Displacement of [[125I]-Tyr23]-ACTH (1-39) from human MC2R incubated for 1.5 hrs by Topcount scintillation counting method

[2] = in vitro; details: human, liver microsomes
Description: Stability in human liver microsomes assessed as half life

[3] = in vitro; details: rat, liver microsomes
Description: Stability in rat liver microsomes assessed as half life

[4] = in vivo; details: rat, po, 10 mg/kg
[5] = in vivo; details: rat, po, 10 mg/kg; remark: listed apart in the source
[6] = in vivo; details: rat, po, 10 mg/kg; remark: listed apart in the source
[7] = in vivo; details: rat, po, 10 mg/kg; remark: listed apart in the source
Description: AUClast in rat at 10 mg/kg, po

[8] = in vivo; details: rat, po, 10 mg/kg; remark: listed apart in the source
Description: Half life in rat at 10 mg/kg, po

[9] = in vitro; details: dog, MDCK
Description: Apparent permeability in MDCK cells

[10] = target: Melanocortin receptor 5 (Homo sapiens, UniProt P33032)
[11] = in vivo; details: rat, po, 5 mg/kg
Description: AUClast in rat at 5 mg/kg, po

[12] = in vivo; details: dog, po, 5 mg/kg
Description: Oral bioavailability in dog at 5 mg/kg

[13] = in vivo; details: rat, po, 5 mg/kg; remark: listed apart in the source
Description: Oral bioavailability in rat at 5 mg/kg

[14] = target: Cytochrome P450 3A4 (Homo sapiens, UniProt P08684)
Description: Time dependent inhibition of CYP3A4 (unknown origin)

[15] = in vivo; details: Sprague-Dawley, rat, plasma, po, 3 mg/kg
Description: Drug concentration in Sprague-Dawley rat plasma at 3 mg/kg, po administered as single dose and stimulated with ACTH for 24 hrs measured after 0.5 hrs

[16] = target: 5-hydroxytryptamine receptor 1B (Homo sapiens, UniProt P28222)
Description: Antagonist activity at 5-HT1B (unknown origin)

[17] = in vivo; details: dog, iv, 5 mg/kg
Description: Volume of distribution at steady state in dog at 5 mg/kg, iv

[18] = in vivo; details: Sprague-Dawley, rat, plasma, po, 3 mg/kg; remark: listed apart in the source
Description: Drug concentration in Sprague-Dawley rat plasma at 3 mg/kg, po administered as single dose and stimulated with ACTH for 4 hrs measured after 0.5 hrs

[19] = in vivo; details: rat, iv, 5 mg/kg
Description: Half life in rat at 5 mg/kg, iv

[20] = target: Melanocyte-stimulating hormone receptor (Homo sapiens, UniProt Q01726)
[21] = in vivo; details: rat, iv, 5 mg/kg; remark: listed apart in the source
Description: Volume of distribution at steady state in rat at 5 mg/kg, iv

[22] = target: Cytochrome P450 2C9 (Homo sapiens, UniProt P11712)
Description: Inhibition of CYP2C9 (unknown origin)

[23] = in vivo; details: Sprague-Dawley, rat, plasma, po, 30 mg/kg
Description: Drug concentration in Sprague-Dawley rat plasma at 30 mg/kg, po administered as single dose and stimulated with ACTH for 1 hr measured after 1.5 hrs

[24] = target: Melanocortin receptor 3 (Homo sapiens, UniProt P41968)
[25] = in vitro; details: human, plasma
Description: Plasma protein binding in human at 1 uM

[26] = in vivo; details: Sprague-Dawley, rat, plasma, po, 30 mg/kg; remark: listed apart in the source
Description: Drug concentration in Sprague-Dawley rat plasma at 30 mg/kg, po administered as single dose and stimulated with ACTH for 4 hrs measured after 1.5 hrs

[27] = in vivo; details: Sprague-Dawley, rat, plasma, po, 3 mg/kg; remark: listed apart in the source
Description: Drug concentration in Sprague-Dawley rat plasma at 3 mg/kg, po administered as single dose and stimulated with ACTH for 1 hr measured after 1.5 hrs

[28] = in vivo; details: dog, po, 5 mg/kg; remark: listed apart in the source
Description: Cmax in dog at 5 mg/kg, po

[29] = in vivo; details: Sprague-Dawley, rat, plasma, po, 3 mg/kg; remark: listed apart in the source
Description: Drug concentration in Sprague-Dawley rat plasma at 3 mg/kg, po administered as single dose and stimulated with ACTH for 4 hrs measured after 1.5 hrs

[30] = target: Cytochrome P450 2D6 (Homo sapiens, UniProt P10635)
Description: Time dependent inhibition of CYP2D6 (unknown origin)

[31] = in vivo; details: dog, iv, 5 mg/kg; remark: listed apart in the source
Description: Clearance in dog at 5 mg/kg, iv

[32] = in vitro; details: rat, plasma
Description: Plasma protein binding in rat at 1 uM

[33] = in vivo; details: Sprague-Dawley, rat, plasma, po, 30 mg/kg; remark: listed apart in the source
Description: Drug concentration in Sprague-Dawley rat plasma at 30 mg/kg, po administered as single dose and stimulated with ACTH for 48 hrs measured after 0.5 hrs

[34] = in vivo; details: Sprague-Dawley, rat, plasma, po, 30 mg/kg; remark: listed apart in the source
Description: Drug concentration in Sprague-Dawley rat plasma at 30 mg/kg, po administered as single dose and stimulated with ACTH for 24 hrs measured after 1.5 hrs

[35] = in vivo; details: rat, po, 5 mg/kg; remark: listed apart in the source
Description: Cmax in rat at 5 mg/kg, po

[36] = in vivo; details: rat, iv, 5 mg/kg; remark: listed apart in the source
Description: Clearance in rat at 5 mg/kg, iv

[37] = in vivo; details: Sprague-Dawley, rat, plasma, po, 30 mg/kg; remark: listed apart in the source
Description: Drug concentration in Sprague-Dawley rat plasma at 30 mg/kg, po administered as single dose and stimulated with ACTH for 1 hr measured after 0.5 hr

[38] = in vivo; details: dog, iv, 5 mg/kg; remark: listed apart in the source
Description: Half life in dog at 5 mg/kg, iv

[39] = target: Melanocortin receptor 4 (Homo sapiens, UniProt P32245)
[40] = in vivo; details: Sprague-Dawley, rat, plasma, po, 3 mg/kg; remark: listed apart in the source
Description: Drug concentration in Sprague-Dawley rat plasma at 3 mg/kg, po administered as single dose and stimulated with ACTH for 1 hr measured after 0.5 hr

[41] = in vivo; details: dog, po, 5 mg/kg; remark: listed apart in the source
Description: AUClast in dog at 5 mg/kg, po

[42] = in vivo; details: Sprague-Dawley, rat, plasma, po, 30 mg/kg; remark: listed apart in the source
Description: Drug concentration in Sprague-Dawley rat plasma at 30 mg/kg, po administered as single dose and stimulated with ACTH for 24 hrs measured after 0.5 hrs

[43] = in vivo; details: Sprague-Dawley, rat, plasma, po, 30 mg/kg; remark: listed apart in the source
Description: Drug concentration in Sprague-Dawley rat plasma at 30 mg/kg, po administered as single dose and stimulated with ACTH for 4 hrs measured after 0.5 hrs

[44] = in vitro; details: dog, plasma
Description: Plasma protein binding in dog at 1 uM

[45] = target: Cytochrome P450 2C19 (Homo sapiens, UniProt P33261)
Description: Inhibition of CYP2C19 (unknown origin)

[46] = tested on: MDR1; test: in vitro; details: dog, MDCK-MDR1
Description: Efflux ratio of apparent permeability across basolateral to apical over apical to basolateral in MDCK-MDR1 cells

[47] = target: L-type calcium channel (Homo sapiens, UniProt O60840+Q01668+Q13698+Q13936); test: in vitro
Description: Inhibition of L-type calcium channel (unknown origin) at 10 uM relative to control

Chain of Adrenocorticotropic hormone receptor (Q01718 whole entry): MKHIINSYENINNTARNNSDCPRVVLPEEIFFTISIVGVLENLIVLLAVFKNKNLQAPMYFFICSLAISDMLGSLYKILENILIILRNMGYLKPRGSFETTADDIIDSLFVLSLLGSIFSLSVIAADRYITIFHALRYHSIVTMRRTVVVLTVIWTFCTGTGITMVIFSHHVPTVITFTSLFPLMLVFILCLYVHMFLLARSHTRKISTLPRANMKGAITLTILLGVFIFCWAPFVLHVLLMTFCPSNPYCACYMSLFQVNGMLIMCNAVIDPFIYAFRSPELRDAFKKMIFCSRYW
Chain of Cytochrome P450 2D6 (P10635 whole entry): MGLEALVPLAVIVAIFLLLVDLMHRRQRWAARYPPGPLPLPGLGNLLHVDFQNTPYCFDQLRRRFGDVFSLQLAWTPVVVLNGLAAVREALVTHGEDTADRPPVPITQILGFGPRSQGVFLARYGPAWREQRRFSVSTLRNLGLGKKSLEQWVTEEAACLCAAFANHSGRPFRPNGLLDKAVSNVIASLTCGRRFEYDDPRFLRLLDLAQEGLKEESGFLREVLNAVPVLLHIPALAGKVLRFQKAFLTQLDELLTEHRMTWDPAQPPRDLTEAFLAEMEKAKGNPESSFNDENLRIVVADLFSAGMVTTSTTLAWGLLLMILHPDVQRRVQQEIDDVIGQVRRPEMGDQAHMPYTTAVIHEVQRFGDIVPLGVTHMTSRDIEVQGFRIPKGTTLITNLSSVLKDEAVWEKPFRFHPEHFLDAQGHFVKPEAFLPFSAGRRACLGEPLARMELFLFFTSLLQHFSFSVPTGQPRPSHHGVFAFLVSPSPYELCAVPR
Chain of Melanocortin receptor 4 (P32245 whole entry): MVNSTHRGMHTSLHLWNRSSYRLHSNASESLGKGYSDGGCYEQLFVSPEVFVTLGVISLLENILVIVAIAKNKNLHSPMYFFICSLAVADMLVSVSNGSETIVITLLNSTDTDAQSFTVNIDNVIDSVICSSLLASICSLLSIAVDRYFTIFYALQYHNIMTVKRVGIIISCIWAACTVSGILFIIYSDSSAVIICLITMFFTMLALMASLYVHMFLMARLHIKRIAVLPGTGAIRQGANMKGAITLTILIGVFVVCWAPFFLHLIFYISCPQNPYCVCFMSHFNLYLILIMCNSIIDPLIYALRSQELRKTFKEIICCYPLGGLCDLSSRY
Chain of Melanocortin receptor 3 (P41968 whole entry): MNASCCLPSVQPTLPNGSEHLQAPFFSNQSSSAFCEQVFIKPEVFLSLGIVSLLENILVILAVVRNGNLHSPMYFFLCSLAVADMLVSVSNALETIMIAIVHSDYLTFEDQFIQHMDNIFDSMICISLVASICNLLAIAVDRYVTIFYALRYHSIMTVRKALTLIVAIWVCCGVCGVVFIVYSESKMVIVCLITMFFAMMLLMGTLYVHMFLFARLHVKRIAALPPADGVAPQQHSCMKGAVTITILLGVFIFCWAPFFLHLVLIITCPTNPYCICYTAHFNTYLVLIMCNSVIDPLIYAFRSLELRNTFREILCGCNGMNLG
Chain of 5-hydroxytryptamine receptor 1B (P28222 whole entry): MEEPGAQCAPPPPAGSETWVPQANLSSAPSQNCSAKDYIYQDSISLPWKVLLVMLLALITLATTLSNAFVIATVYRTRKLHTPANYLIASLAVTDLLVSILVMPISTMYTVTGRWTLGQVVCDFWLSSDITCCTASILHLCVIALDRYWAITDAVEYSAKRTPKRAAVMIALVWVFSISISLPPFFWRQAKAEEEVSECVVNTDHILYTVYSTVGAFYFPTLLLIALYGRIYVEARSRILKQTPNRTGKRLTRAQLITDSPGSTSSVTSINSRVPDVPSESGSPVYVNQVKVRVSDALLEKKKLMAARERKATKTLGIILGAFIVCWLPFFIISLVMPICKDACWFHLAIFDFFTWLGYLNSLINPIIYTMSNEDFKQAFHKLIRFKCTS
Chain of Melanocortin receptor 5 (P33032 whole entry): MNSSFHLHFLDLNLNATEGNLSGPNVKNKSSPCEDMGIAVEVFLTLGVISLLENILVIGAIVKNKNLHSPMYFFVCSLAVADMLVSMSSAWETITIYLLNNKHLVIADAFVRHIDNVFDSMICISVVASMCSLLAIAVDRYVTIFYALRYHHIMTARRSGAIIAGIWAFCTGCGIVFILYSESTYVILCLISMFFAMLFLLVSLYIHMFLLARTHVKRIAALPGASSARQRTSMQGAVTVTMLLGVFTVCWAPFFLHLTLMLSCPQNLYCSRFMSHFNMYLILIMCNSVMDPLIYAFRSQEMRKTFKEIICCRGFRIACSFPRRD
Chain of Cytochrome P450 2C19 (P33261 whole entry): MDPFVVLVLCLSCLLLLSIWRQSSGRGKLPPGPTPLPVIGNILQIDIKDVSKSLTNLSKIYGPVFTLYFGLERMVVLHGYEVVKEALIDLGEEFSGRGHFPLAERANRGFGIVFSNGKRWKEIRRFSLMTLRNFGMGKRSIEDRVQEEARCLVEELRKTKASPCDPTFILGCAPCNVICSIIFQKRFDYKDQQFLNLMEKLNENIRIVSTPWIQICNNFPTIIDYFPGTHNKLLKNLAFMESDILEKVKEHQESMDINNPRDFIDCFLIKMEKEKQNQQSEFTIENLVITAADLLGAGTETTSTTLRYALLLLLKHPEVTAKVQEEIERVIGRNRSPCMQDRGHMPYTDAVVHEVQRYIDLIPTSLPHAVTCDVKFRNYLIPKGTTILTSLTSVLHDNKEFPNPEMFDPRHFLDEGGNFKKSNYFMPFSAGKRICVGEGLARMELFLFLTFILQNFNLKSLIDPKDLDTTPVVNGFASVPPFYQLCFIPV
Chain of Cytochrome P450 2C9 (P11712 whole entry): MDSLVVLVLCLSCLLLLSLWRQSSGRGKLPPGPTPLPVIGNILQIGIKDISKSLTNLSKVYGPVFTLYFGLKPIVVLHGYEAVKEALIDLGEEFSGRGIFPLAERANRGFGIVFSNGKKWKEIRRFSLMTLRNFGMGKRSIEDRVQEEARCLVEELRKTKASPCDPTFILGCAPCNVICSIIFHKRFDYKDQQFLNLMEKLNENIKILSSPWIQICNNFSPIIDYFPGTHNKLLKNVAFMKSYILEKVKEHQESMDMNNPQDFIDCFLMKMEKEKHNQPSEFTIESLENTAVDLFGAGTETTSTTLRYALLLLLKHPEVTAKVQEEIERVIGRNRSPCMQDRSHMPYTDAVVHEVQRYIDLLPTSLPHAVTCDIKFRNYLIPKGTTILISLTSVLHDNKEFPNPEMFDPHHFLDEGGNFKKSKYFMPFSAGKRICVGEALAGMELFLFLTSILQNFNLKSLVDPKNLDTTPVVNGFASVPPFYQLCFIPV
Chain of Cytochrome P450 3A4 (P08684 whole entry): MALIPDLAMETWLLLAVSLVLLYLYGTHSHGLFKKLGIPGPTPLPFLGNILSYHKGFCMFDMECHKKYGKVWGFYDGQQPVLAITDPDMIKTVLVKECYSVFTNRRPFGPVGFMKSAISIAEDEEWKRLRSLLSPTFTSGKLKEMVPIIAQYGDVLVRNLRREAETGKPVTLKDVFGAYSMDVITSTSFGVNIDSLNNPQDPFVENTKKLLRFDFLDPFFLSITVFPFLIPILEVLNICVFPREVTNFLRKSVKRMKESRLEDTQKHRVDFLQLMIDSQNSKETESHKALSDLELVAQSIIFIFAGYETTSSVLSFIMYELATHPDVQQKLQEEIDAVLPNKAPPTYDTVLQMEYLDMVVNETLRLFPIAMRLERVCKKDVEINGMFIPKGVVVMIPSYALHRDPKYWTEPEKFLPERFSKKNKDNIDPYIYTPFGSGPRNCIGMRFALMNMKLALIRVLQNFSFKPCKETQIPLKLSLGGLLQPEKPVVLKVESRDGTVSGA
Chain of Melanocyte-stimulating hormone receptor (Q01726 whole entry): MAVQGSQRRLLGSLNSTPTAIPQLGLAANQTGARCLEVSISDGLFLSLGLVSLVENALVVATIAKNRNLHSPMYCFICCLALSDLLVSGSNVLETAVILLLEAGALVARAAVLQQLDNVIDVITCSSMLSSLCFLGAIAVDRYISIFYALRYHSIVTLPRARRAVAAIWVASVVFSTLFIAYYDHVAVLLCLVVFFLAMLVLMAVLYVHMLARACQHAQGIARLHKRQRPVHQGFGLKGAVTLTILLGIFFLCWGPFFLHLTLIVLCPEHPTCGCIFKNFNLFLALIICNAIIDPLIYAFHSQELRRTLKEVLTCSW

- Ki [1]: 1.1 nM
SMILES: CCOc1ncccc1-c1ccc(N2CCN(C(=O)c3ccc(Cl)cc3C(F)(F)F)C[C@H]2CC)c(C(=O)NCCN)c1

- half-life [2]: 0.383 h
- half-life [3]: 3.85 h
- Ki [1]: 0.63 nM
SMILES: CCOc1ncccc1-c1ccc(N2CCN(C(=O)C3(C(F)(F)F)CCCC3)C[C@H]2CC)c(C(=O)N[C@@H]2CCN(C)C2)n1

- Ki [1]: 25 nM
SMILES: CC[C@@H]1CN(C(=O)c2ccc(C(F)(F)F)cc2Cl)CCN1c1ccc(-c2ccccc2C#N)cc1C(=O)NCCN

SMILES: CCOc1ncccc1-c1ccc(N2CCN(C(=O)C3(C(F)(F)F)CCC3)C[C@H]2CC)c(C(=O)N[C@@H]2CN3CCC2CC3)n1
- Ki [1]: 4.4 nM

- Ki [1]: 1.6 nM
SMILES: CCOc1ccccc1-c1ccc(N2CCN(C(=O)c3ccc(Cl)cc3C(F)(F)F)C[C@H]2CC)c(C(=O)NCCN)c1

- AUC(0-t) [4]: 0.0081 µM·h
- Ki [1]: 4.8 nM
- Cmax [5]: 2.8 nM
SMILES: CCOc1ccccc1-c1ccc(N2CCN(C(=O)c3ccc(Cl)cc3Cl)C[C@H]2CC)c(C(=O)NCCN)c1

- half-life [2]: 1.93 h
- half-life [3]: 3.85 h
- Ki [1]: 1.3 nM
SMILES: CCOc1ccccc1-c1ccc(N2CCN(C(=O)C3(C(F)(F)F)CCC3)C[C@H]2CC)c(C(=O)N[C@@H]2CCN(C)C2)n1

- half-life [2]: 0.583 h
- bioavailability [6]: 17%
- half-life [3]: 0.717 h
- AUC(0-t) [7]: 1.44 µM·h
- half-life [8]: 2.2 h
- Ki [1]: 0.3 nM
SMILES: CCOc1ncccc1-c1ccc(N2CCN(C(=O)c3ccc(Cl)cc3C(F)(F)F)C[C@H]2CC)c(C(=O)N[C@@H]2CCN(C)C2)n1

- half-life [2]: 1.15 h
- half-life [3]: 0.533 h
- Ki [1]: 0.4 nM
SMILES: CCOc1ncccc1-c1ccc(N2CCN(C(=O)C34CCC(C(F)(F)F)(CC3)CC4)C[C@H]2CC)c(C(=O)N[C@@H]2CCN(C)C2)n1

- Ki [1]: 1.5 nM
SMILES: CCOc1ncccc1-c1ccc(N2CCN(C(=O)c3ccc(Cl)cc3C(F)(F)F)C[C@H]2CC)c(C(=O)NCCN(C)C)c1

- Ki [1]: 0.9 nM
SMILES: CCOc1ncccc1-c1ccc(N2CCN(C(=O)c3ccc(Cl)cc3C(F)(F)F)C[C@H]2CC)c(C(=O)NCCN(C)C)c1F

- Ki [1]: 2 nM
SMILES: CCOc1ccccc1-c1ccc(N2CCN(C(=O)c3ccc(C(F)(F)F)cc3Cl)C[C@H]2CC)c(C(=O)NCCN)c1

- half-life [2]: 1.28 h
- half-life [3]: > 11.6 h
- Ki [1]: 3.7 nM
SMILES: CCOc1ncccc1-c1ccc(N2CCN(C(=O)C3(C(F)(F)F)CCC3)C[C@H]2CC)c(C(=O)N[C@@H]2CCN(C)C2)n1

- Ki [1]: 0.96 nM
SMILES: CCOc1ncccc1-c1ccc(N2CCN(C(=O)c3ccc(Cl)cc3C(F)(F)F)C[C@H]2CC)c(C(=O)NCCNC)c1

- half-life [2]: 0.383 h
- bioavailability [6]: 8%
- half-life [3]: 0.35 h
- AUC(0-t) [7]: 0.349 µM·h
- half-life [8]: 1.6 h
- Ki [1]: 0.39 nM
SMILES: CCOc1ncccc1-c1ccc(N2CCN(C(=O)c3ccc(Cl)cc3C(F)(F)F)C[C@H]2CC)c(C(=O)NCCN(C)C)n1

- Ki [1]: 36 nM
SMILES: CC[C@@H]1CN(C(=O)c2ccc(C(F)(F)F)cc2Cl)CCN1c1ccc(-c2cccc(F)c2Cl)cc1C(=O)NCCN

- Ki [1]: 21 nM
SMILES: CC[C@@H]1CN(C(=O)c2ccc(C(F)(F)F)cc2Cl)CCN1c1ccc(-c2ccccc2Cl)cc1C(=O)NCCN

- half-life [2]: 3.85 h
- half-life [3]: 5.78 h
- AUC(0-t) [7]: 0.279 µM·h
- half-life [8]: 4 h
- Ki [1]: 0.32 nM
SMILES: CCOc1ncccc1-c1ccc(N2CCN(C(=O)c3ccc(Cl)cc3C(F)(F)F)C[C@H]2CC)c(C(=O)N[C@@H]2CCNC2)n1

- Ki [1]: 47 nM
SMILES: CC[C@@H]1CN(C(=O)c2ccc(C(F)(F)F)cc2Cl)CCN1c1ccc(-c2ccccc2F)cc1C(=O)NCCN

- Papp [9]: 1.9 ×10⁻⁶ cm/s
- IC50 [10]: > 10000 nM
- AUC(0-t) [11]: 5.2 µM·h
- bioavailability [12]: 100%
- bioavailability [13]: 47%
- IC50 [14]: > 10000 nM
- concentration at 0.5 h [15]: 0.927 ng/mL
- IC50 [16]: 750 nM
- half-life [2]: 3.85 h
- Vd [17]: 10.5 L/kg
- concentration at 0.5 h [18]: 127 ng/mL
- half-life [19]: 2.73 h
- IC50 [20]: > 10000 nM
- Vd [21]: 3.19 L/kg
- IC50 [22]: > 10000 nM
- concentration at […] [23]: 1530 ng/mL
- IC50 [24]: > 10000 nM
- fraction unbound at 1 µM [25]: 0.014
- concentration at […] [26]: 1260 ng/mL
- concentration at […] [27]: 93.9 ng/mL
- Cmax [28]: 650 nM
- concentration at […] [29]: 87.5 ng/mL
- IC50 [30]: > 10000 nM
- clearance [31]: 14.2 mL/min/kg
- fraction unbound at 1 µM [32]: 0.026
- concentration at 0.5 h [33]: 0.88 ng/mL
- concentration at […] [34]: 14.1 ng/mL
- Cmax [35]: 1220 nM
- half-life [3]: 3.85 h
- clearance [36]: 24.5 mL/min/kg
- concentration at 0.5 h [37]: 1140 ng/mL
- half-life [38]: 9.55 h
- IC50 [39]: > 10000 nM
- concentration at 0.5 h [40]: 110 ng/mL
- AUC(0-t) [41]: 4.97 µM·h
- concentration at 0.5 h [42]: 20 ng/mL
- concentration at 0.5 h [43]: 1460 ng/mL
- Ki [1]: 2.1 nM
- fraction unbound at 1 µM [44]: 0.132
- IC50 [45]: > 10000 nM
- efflux ratio [46]: 95
- inhibition at 10 µM [47]: > 70%
SMILES: CCOc1ccccc1-c1ccc(N2CCN(C(=O)C3(C(F)(F)F)CCC3)C[C@H]2CC)c(C(=O)N[C@@H]2CN3CCC2CC3)n1 [ATUMELNANT]
